Reference: patent US12110316B2, “Cleavable activators of CXCR3 and methods of use” (University of Pittsburgh—Of the Commonwealth System of …, priority 2018, dated 2024)

System: choroidal neovascularization (CNV)
Experiment: Laser-induced choroidal neovascularization (CNV) mouse model
Assay type: in vivo
Settings: female C57BL/6J mice; 1 μg (FIG. 1A) or 3 μg (FIG. 1B) peptide injected in 1 μl in one eye immediately after laser; scramble peptide in contralateral eye; measured seven days after laser
Description: Since the histidine to serine substitution is a non-conserved amino acid change, experiments were performed to confirm that the engineered peptide retained the ability to block angiogenesis and fibrosis in a mouse model of choroidal neovascularization (CNV).
Mouse CNV was induced by laser photocoagulation-induced rupture of Bruch's membrane as previously described. Briefly, 7- to 8-week-old female C57BL/6J mice were anesthetized with ketamine hydrochloride (100 mg/kg body weight), and pupils were dilated with 1% tropicamide. Three burns of 532-nm diode laser photocoagulation (spot size, […]; duration, 0.1 sec; power, 120 mW) were delivered to each retina with the slit lamp delivery system of an OcuLight GL diode laser (Iridex, Mountain View, CA), using a coverslip as a contact lens to view the retina. Burns were performed at the 9, 12, and 3 o'clock positions of the posterior pole of the retina. […]
Immediately after laser treatment, mice were injected with either 1 μg (FIG. 1A) or 3 μg (FIG. 1B) of Peptide 110 (SEQ ID NO: 2), or one of three positive control peptides (Peptide 102, Peptide 105 or Peptide 107), in a volume of 1 μl in one eye and the contralateral eyes were injected with scramble peptide as control. […] After three washes with PBST, choroids were mounted on glass slides and were examined by fluorescence microscopy. […]

Sequence: PESKAIKNLLKAVHKEMSKRSP [Peptide 110, modified fragment of human CXCL10 with a cathepsin G and neutrophil elastase cleavage site]
- choroidal neovascularization (total area of choroidal NV at each rupture site); anti-angiogenic activity: significant reduction
